Results taken from paper PMC10693528, “A high-throughput metabolomics in vitro platform for the characterization of hepatotoxicity” (Cell Biology and Toxicology, 2023).
Where “and” joins values, the source holds several entries; their conditions need not be identical. Identical values can stand only once.

Tests used:
[1] = Cell viability (ATP, CellTiter-Glo) in parallel with metabolomics experiments; settings: human, HepG2 cells, Percentage of viability (ATP) compared to the vehicle control, Bezafibrate positive control, Bezafibrate 1000 μM, 48 h, one value per experiment plate, n = 6
Experimental: (§1) HepG2 cells (ECACC, UK, maximum passage number 9) were maintained and grown on Dulbecco’s MEM media supplemented with 1% v/v of penicillin/streptomycin, L-glutamine (200 mM, 1% v/v), non-essential amino acids (100x, 1% v/v), and 10% FBS (PAN-Biotech, Aidenbach, Germany) in 75 cm^2 culture flasks (TPP, Switzerland). For cell passaging (~ 80% confluency) media was removed and cells were washed twice with pre-warmed calcium and magnesium free Dulbecco’s PBS (PAN-Biotech, Aidenbach, Germany). Trypsin was used for cell detachment. Then, 20 mL culture medium was added, and single-cell suspensions were obtained by passing the suspension through a Combitip (Eppendorf, Germany). A fraction of the cell suspension was then transferred to a new culture vessel. For experiments, 15,000 cells per well (passage 5-9) were seeded in 96-well flat-bottom plates (TPP, Switzerland) and incubated for 24 h for cell attachment (37 °C and 5% CO^2). Afterwards, culture media were exchanged, test substances applied, and plates incubated for 48 h (37 °C and 5% CO^2).
(§2) For each substance, one 96-well plate was set up with 6 replicates per concentration, 12 replicates for vehicle controls (yielding a final concentration of 0.5% DMSO in the well), 6 replicates for positive controls (Bezafibrate 1000 μM), and 6 replicates for blank controls (media without cells). To minimize potential evaporation, the outer rows and columns of the plate were omitted and filled with PBS instead. Reference samples prepared from lyophilized HepG2 cells were measured in parallel throughout the entire analytical process (technical replicates). […] Lyophilized HepG2 cells reference samples were used to account for variability between plates and in concentration series for linearity checks. After 48 h, the assays were stopped by washing the wells once with 100 μL 0.9% NaCl followed by snap freezing the plates on liquid nitrogen for 5 s. Plates were placed immediately on dry ice and 50 μL ice-cooled isopropanol 80% (v/v) were added to quench metabolism and precipitate proteins. Plates were stored at − 80 °C until LC/ MS analysis.

[2] = test system: HepG2 cells; test: as above; settings: Bezafibrate 1000 μM, 48 h, one value per experiment plate, n = 6
Experimental: as §1, §2

[3] = test system: HepG2 cells; test: LC-MS/MS targeted intracellular metabolomics; format: cell-based, human; settings: Suppl Fig 9; C3 (EC15 ATP), 48 h; Bezafibrate lines = Plates 1-6 in order
Experimental: Metabolite profiling of cells was performed directly in the same 96-well plate according to a standardized protocol described below. In order to prevent any interaction with the cell material, the automatic sampler was adjusted to pick up the sample from the supernatant at a specified depth avoiding the contact with the bottom of the plate.
After the initial quenching step (50 μL isopropanol 80%), additional 70 μL of isopropanol 80%, containing internal standards (methionine-D3, tryptophan-D5, arginine-13C6-15N4, Boc-Ala-Gly-Gly-Gly-OH, coenzyme Q1, coenzyme Q2, coenzyme Q4) were added to each well. The internal standards were used for quality control by visual inspection (signal intensity, peak shape, retention time); they were not used for normalization. Afterwards, plates were shaken for 5 min, 750 rpm at 20 °C, and placed for 30 s in the ultrasonic device. Then, the plates were centrifugated for 10 min, at 5485 g, 15 °C. Further, 2.5 μL of the extract were injected each for reversed-phase and hydrophilic interaction liquid chromatography followed by MS/MS detection (AB Sciex QTrap 6500+) using the positive and negative ionization mode. For reverse-phase high-performance liquid chromatography (RP-HPLC, Ascentis Express C18, 5 cm × 2.1 mm, 2.7 μm Supelco), gradient elution was performed with mobile phase A, water/methanol/0.1 M ammonium formate (1:1:0.02, w/w), and B, methyl-tert-butylether/2-propanol/methanol/0.1 M ammonium formate/formic acid (4:2:1:0.07:0.035, w/w) 5.9 min linear gradient: 0 min 100% A, 0.5 min 75% A, 5.9 min 10% A; followed by 0% A until 6.7 min; re-equilibration at 100% A until 7.7 min; flow rate 600 μL/min; column temperature 40 °C HILIC (ZIC-HILIC, 2.1 × 100 mm, 3.5 μm, Supelco) gradient elution was performed with mobile phase C, acetonitrile/water (99:1, v/v) with 0.2% (v) acetic acid, and D, 7 mM ammonium acetate with 0.2% (v) acetic acid (5.0 min linear gradient: 0 min 100% C, 5 min 10% C; followed by a linear gradient back to 100%C until 6.5 min; re-equilibration at 100% C until 7.5 min; flow rate 600 μL/min; column temperature 40 °C.). Two LC-MS systems with identical configuration were used for the analysis. Normalization to lyophilized reference samples (see below) was used to compensate for variation from between analytical batches. The efficiency of this normalization procedure was checked by principal component analysis (PCA), confirming that Pool samples from different analytical batches clustered together.
Reference samples derived from lyophilized untreated HepG2 cells (technical control samples) were measured in parallel throughout the entire analytical process. Data were normalized against the median of these lyophilized HepG2 cells reference samples, to give normalized ratios (performed for each sample per metabolite). This compensated for inter- and intra-instrumental variation. To correct for small differences in cell numbers within and between different treatment groups, data were also normalized to the within sample median, as described in detail by (Ramirez et al. [2018]). For intracellular metabolomic analysis, the median of each sample was calculated across all the 221 measured metabolites.
To generate metabolic profiles for the different treatments, heteroscedastic t test (Welch test) was applied to log-transformed normalized metabolite data to compare treated groups with their respective controls.
Principal component analysis (PCA) and hierarchical clustering (HCA) analyses were performed using R software environment (https://www.r-project.org/). PCA was conducted using the ropls package (Thévenot et al. [2015]) with log10-transformed input data and standard scaling. HCA was performed using the pvclust package (Suzuki et al. [2019]), (https://CRAN.R-project.org/package=pvclust). Input: log10(Ratio), clustering method: Ward D2, distance method: Manhattan, bootstrapping: 10000 times.

SMILES: CC(C)(Oc1ccc(CCNC(=O)c2ccc(Cl)cc2)cc1)C(=O)O [Bezafibrate]
- viability at 48 h, 1000 μM [1]: 71 to 84%
- Percentage of viability (ATP) compared to the vehicle control, Bezafibrate positive control [2]: 84.1 ± 2.3% and 76.3 ± 3.2% and 75.0 ± 1.5% and 71.8 ± 2.8% and 78.0 ± 0.7% and 79.3 ± 2.2%
- 5-Hydroxytryptophan level vs controls [3]: 0.84 and 0.77 and 0.76 and 0.85 and 0.74 and 0.65
- Carnitine level vs controls [3]: 0.72 and 0.74 and 0.84 and 0.77 and 0.80
- Ceramide (d18:1.C20:0) level vs controls [3]: 0.63 and 0.66 and 0.56 and 0.62 and 0.64 and 0.59
- Ceramide (d18:1.C24:1) level vs controls [3]: 0.66 and 0.91 and 0.98 and 0.80 and 0.85 and 0.68
- Ceramide (d18:1.C24:2) level vs controls [3]: 0.83 and 1.08 and 1.11 and 0.89 and 0.90 and 0.91
- Ceramide (d18:2.C24:1) level vs controls [3]: 0.56 and 0.62 and 0.68 and 0.89 and 0.63
- Choline plasmalogen (C36:4) level vs controls [3]: 0.65 and 0.80 and 0.68 and 0.69 and 0.73 and 0.72
- Choline plasmalogen (C36:5) level vs controls [3]: 0.78 and 0.90 and 0.80 and 0.83 and 0.82 and 0.79
- Creatine level vs controls [3]: 0.80 and 0.82 and 0.73 and 0.78 and 0.67 and 0.66
- Glycerol-3-phosphate level vs controls [3]: 0.68 and 0.43 and 0.45 and 0.54 and 0.44 and 0.39
- Hexanoylcarnitine level vs controls [3]: 0.65 and 0.54 and 0.50 and 0.59 and 0.62
- Ketoleucine level vs controls [3]: 0.73 and 0.72 and 0.74 and 0.77 and 1.10
- Lysophosphatidylcholine (C14:0) level vs controls [3]: 2.27 and 1.82 and 2.09 and 1.97 and 1.85 and 1.87
- Lysophosphatidylcholine (C16:0) level vs controls [3]: 1.86 and 1.92 and 1.98 and 2.08 and 1.93 and 2.14
- Lysophosphatidylcholine (C16:1) level vs controls [3]: 1.95 and 2.13 and 2.01 and 2.17 and 1.86 and 1.72
- Lysophosphatidylcholine (C20:4) level vs controls [3]: 1.22 and 1.67 and 1.47 and 1.90 and 1.86 and 1.44
- Lysophosphatidylcholine (C24:0) level vs controls [3]: 1.01 and 1.18 and 1.11 and 1.20 and 1.21 and 1.29
- Lysophosphatidylcholine (C24:1) level vs controls [3]: 1.10 and 1.03 and 1.13 and 1.26 and 1.12
- Lysophosphatidylethanolamine (C16:0) level vs controls [3]: 2.47 and 2.37 and 2.23 and 2.12 and 2.10 and 2.19
- Lysophosphatidylethanolamine (C18:0) level vs controls [3]: 2.21 and 2.07 and 1.76 and 1.77 and 2.04
- Lysophosphatidylethanolamine (C18:1) level vs controls [3]: 2.45 and 2.31 and 1.97 and 2.19 and 2.11 and 2.16
- N-Acetylaspartate level vs controls [3]: 1.54 and 1.49 and 1.66 and 1.48 and 1.41 and 1.25
- Pantothenic acid level vs controls [3]: 0.68 and 0.77 and 0.59 and 0.72 and 0.70 and 0.76
- Phosphatidylcholine (C32:0) level vs controls [3]: 0.82 and 0.70 and 0.79 and 0.88 and 0.83 and 0.76
- Phosphatidylcholine (C34:1) level vs controls [3]: 0.83 and 0.75 and 0.78 and 0.82 and 0.74
- Phosphatidylcholine (C34:3) level vs controls [3]: 1.02 and 1.18 and 1.17 and 1.09 and 1.15 and 1.04
- Phosphatidylcholine (C36:1) level vs controls [3]: 0.86 and 0.88 and 0.73 and 0.84 and 0.79 and 0.90
- Phosphatidylcholine (C36:2) level vs controls [3]: 0.66 and 0.71 and 0.62 and 0.69 and 0.65
- Phosphatidylcholine (C36:3) level vs controls [3]: 0.90 and 1.03 and 0.84 and 0.96 and 0.97 and 0.89
- Phosphatidylcholine (C36:4) level vs controls [3]: 1.00 and 0.93 and 0.81 and 0.98 and 0.95 and 0.94
- Phosphatidylcholine (C36:5) level vs controls [3]: 0.78 and 0.81 and 0.63 and 0.76 and 0.72 and 0.75
- Phosphatidylethanolamine (C36:3) level vs controls [3]: 0.90 and 0.87 and 0.84
- Phosphatidylethanolamine (C38:3) level vs controls [3]: 0.72 and 0.70 and 0.64 and 0.75 and 0.68 and 0.66
- Phosphatidylethanolamine (C38:5) level vs controls [3]: 0.90 and 1.00 and 0.86 and 0.98 and 0.87
- Phosphatidylethanolamine (C38:6) level vs controls [3]: 0.92 and 0.91 and 0.95 and 1.01 and 0.98
- Phosphatidylethanolamine (C40:7) level vs controls [3]: 0.79 and 0.81 and 0.75 and 0.88 and 0.82
- Phosphocholine level vs controls [3]: 0.78 and 0.69 and 0.56 and 0.63
- Propionylcarnitine level vs controls [3]: 0.66 and 0.78 and 0.40 and 0.58 and 0.54 and 0.57
- S-Adenosylhomocysteine level vs controls [3]: 0.92 and 0.98 and 0.70 and 0.93 and 0.78 and 0.79
- Sphingomyelin (d32:2) level vs controls [3]: 0.49 and 0.71 and 0.69 and 0.75 and 0.59 and 0.78
- Sphingomyelin (d33:1) level vs controls [3]: 1.19 and 1.34 and 1.15 and 1.32 and 1.18 and 1.20
- Sphingomyelin (d34:0) level vs controls [3]: 0.96 and 1.09 and 1.25 and 1.15 and 1.11
- Sphingomyelin (d35:1) level vs controls [3]: 0.86 and 0.95 and 0.88 and 0.85 and 0.92
- Sphingomyelin (d36:1) level vs controls [3]: 0.86 and 0.96 and 0.90 and 0.82 and 0.84
- Sphingomyelin (d36:2) level vs controls [3]: 0.73 and 0.90 and 0.85 and 0.87 and 0.88
- Sphingomyelin (d37:1) level vs controls [3]: 0.70 and 0.80 and 0.79 and 0.76
- Sphingomyelin (d38:1) level vs controls [3]: 0.88 and 0.84 and 0.85 and 0.87 and 0.91
- Sphingomyelin (d38:2) level vs controls [3]: 0.61 and 0.66 and 0.64 and 0.67 and 0.71
- Sphingomyelin (d39:1) level vs controls [3]: 0.77 and 0.83 and 0.87 and 0.81 and 0.86
- Sphingomyelin (d40:2) level vs controls [3]: 0.73 and 0.83 and 0.81 and 0.87 and 0.78 and 0.84
- Sphingomyelin (d41:2) level vs controls [3]: 0.78 and 0.79 and 0.82 and 0.88 and 0.77 and 0.80
- Sphingomyelin (d42:2) level vs controls [3]: 0.86 and 0.95 and 0.81 and 0.98 and 0.89 and 0.91
- Taurine level vs controls [3]: 0.93 and 0.92 and 0.68 and 0.90 and 0.88
- Triacylglycerol (C34:1.C18:3) level vs controls [3]: 1.57 and 2.06 and 2.37 and 1.58 and 1.93 and 2.00
- Triacylglycerol (C34:2.C18:0) level vs controls [3]: 1.63 and 1.54 and 1.78 and 1.17 and 1.31 and 1.39
- Triacylglycerol (C34:2.C18:1) level vs controls [3]: 1.40 and 1.62 and 1.81 and 1.26 and 1.79 and 1.43
- Triacylglycerol (C36:4.C16:0) level vs controls [3]: 1.74 and 2.34 and 2.73 and 1.73 and 1.97 and 2.11
- Triacylglycerol (C36:4.C18:0) level vs controls [3]: 1.72 and 1.82 and 2.28 and 2.15 and 2.38 and 2.26
